Patent publication US20240174723A1, “STAPLED ANTIMICROBIAL PEPTIDES (STAMPS) AND USES THEREOF” (Lytica Therapeutics, Inc., priority 2021, published 2024)
In brackets after ≈: the same amount, converted by molar mass. Positions of bridges follow the written chain, without caps; N, C: chain ends. Non-standard residues stand in square brackets, D forms with d. Residues, ends and D or L forms follow the SMILES beside them. Phe(4-CF3) = N[C@@H](Cc1ccc(C(F)(F)F)cc1)C(=O)O; Phe(4-F) = N[C@@H](Cc1ccc(F)cc1)C(=O)O; PEG5 = NCCOCCOCCOCCOCCOCCC(=O)O; S5 = C=CCCC[C@](C)(N)C(=O)O; Dab = NCC[C@H](N)C(=O)O

What was measured:
[1] = system: K. pneumoniae; format: cell-based, Klebsiella pneumoniae
Procedure, shortened: (§1)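 MIC by CLSI-adapted microbroth dilution; MHB or MHB II; inoculum 5×10^5 CFU/ml final; 20-24 h, 37 °C; endpoint = no visible growth.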

[2] = system: A. baumannii; format: cell-based, Acinetobacter baumannii
Procedure, shortened: as §1

[3] = system: S. aureus; format: cell-based, Staphylococcus aureus
Procedure, shortened: as §1

[4] = in vitro; format: cell-based; details: human
Experimental: Cell culture: RPTEC were maintained in MEM media supplemented with growth factors. HEPG2 cell line was maintained in Eagle's Minimum Essential Medium (EMEM) supplemented with fetal bovine serum to a final concentration of 10%.
90 minute cytotoxicity assay: Cells were plated in a 96-well format, and after overnight incubation, media was replaced with fresh media. Serial dilutions of StAMPs from a 5 mg/mL water stock, or vehicle, were added to the cells in a final volume of 100 μl. After incubating at 37° C. for 90 min, 50 μl of cell culture media was transferred to a clear 96-well plate, incubated with 50 μl of lactate dehydrogenase (LDH) assay reagent for 10 min, and absorbance measured at 490 nm on a microplate reader.
Renal toxicity was measured after 90 minutes of incubation, while liver toxicity was measured after 48 hours of incubation with StAMPs. N/A=not tested. The following apply to all peptides (i.e., StAMPs) listed in Tables A-C: Crosslinks (X^1—X^2 and X^3—X^4): (alk); N-terminus: —NH2; C-terminus: amidated with —NH2; counterion: Cl^−. The following apply to all peptides (i.e., StAMPs) listed in Table D: Crosslinks (X^1—X^2 and X^3—X^4): (alk); N-terminus: —NH2; C-terminus: as shown in table; counterion: Cl^−.
StAMP Micelle Formulation: DSPE-MPEG(2000) was suspended in buffered saline at 50-100 mg/mL overnight. StAMP stock solutions at 5-20 mg/mL in buffered saline were prepared and equal volumes of micelle and StAMP stock solution were mixed at the desired StAMP:Lipid ratio. Suspensions were allowed to sit for 5-10 minutes at room temperature before being used in in vitro and in vivo assays.
In Table E, the StAMP is StAMP 4 (Table A) and “Lipid”=DSPE-MPEG(2000).

[5] = system: P. aeruginosa; format: cell-based, Pseudomonas aeruginosa
Procedure, shortened: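 MIC taken as lowest peptide concentration with no visible growth after 20-24 h at 37 °C. Peptide serial dilutions from water stocks met P. aeruginosa inoculum (5×10^5 CFU/ml final) in MHB or MHB II, per a CLSI-adapted microbroth protocol.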

[6] = in vitro; format: cell-based; details: human, Inhibitory Concentration at 50% Cytotoxicity (IC50) Human Liver Cells (HepG2)
Procedure, shortened: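 Cytotoxicity read by CellTiter-Glo luminescence after 48 h at 37 °C exposure to serially diluted StAMPs or vehicle. HepG2 cells were grown in EMEM plus 10% FBS and given 4 h to attach before dosing; peptides came from a 5 mg/mL aqueous stock.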

[7] = system: E. coli; format: cell-based, Escherichia coli
Procedure, shortened: as §1

Structure (SMILES) | Minimum Inhibitory Concentration (MIC) K. pneumoniae [1] [µg/mL] | Minimum Inhibitory Concentration (MIC) A. baumannii [2] [µg/mL] | Minimum Inhibitory Concentration (MIC) S. aureus [3] [µg/mL] | IC50 at 90 min [4] [µg/mL] | Minimum Inhibitory Concentration (MIC) P. aeruginosa [5] [µg/mL] | Minimum Inhibitory Concentration (MIC) E. coli [7] [µg/mL] | IC50 at 48 hours [6] [µg/mL]
CC(C)[C@@H]1NC(=O)[C@H](C(C)C)NC(=O)[C@@](C)(NC(=O)[C@H](C)NC(=O)[C@H](CCCCN)NC(=O)CNC(=O)[C@H](Cc2ccc(C(F)(F)F)cc2)NC(=O)[C@H](CCCCN)NC(=O)[C@H](CCCCN)NC(=O)[C@H](CCCCN)NC(=O)[C@H](CCCCN)NC(=O)[C@H](Cc2c[nH]cn2)NC(=O)[C@]2(C)CCCC=CCCC[C@](C)(NC(=O)CN)C(=O)NCC(=O)N[C@@H](CCCCN)C(=O)N[C@@H](Cc3ccc(C(F)(F)F)cc3)C(=O)N2)CCCC=CCCC[C@@](C)(C(=O)N[C@@H](C)C(=O)N[C@@H](CCCCN)C(=O)N[C@@H](CCCCN)C(N)=O)NC(=O)[C@H](CCC(=O)O)NC1=O [compound 30] (H-G[S5]GK[Phe(4-CF3)][S5]HKKKK[Phe(4-CF3)]GKA[S5]VVE[S5]AKK-NH2; staple 2-6, 16-20) | 4 | 2 | 32 | 17 (≈ 6.18 µM) | 4 | 2 | 
CC(C)[C@@H]1NC(=O)[C@H](C(C)C)NC(=O)[C@@](C)(NC(=O)[C@H](C)NC(=O)[C@H](CCCCN)NC(=O)CNC(=O)[C@H](Cc2ccc(F)cc2)NC(=O)[C@H](CCCCN)NC(=O)[C@H](CCCCN)NC(=O)[C@H](CCCCN)NC(=O)[C@H](CCCCN)NC(=O)[C@H](Cc2c[nH]cn2)NC(=O)[C@]2(C)CCCC=CCCC[C@](C)(NC(=O)CN)C(=O)NCC(=O)N[C@@H](CCCCN)C(=O)N[C@@H](Cc3ccc(F)cc3)C(=O)N2)CCCC=CCCC[C@@](C)(C(=O)N[C@@H](C)C(=O)N[C@@H](CCCCN)C(=O)N[C@@H](CCCCN)C(N)=O)NC(=O)[C@H](CCC(=O)O)NC1=O [compound 29] (H-G[S5]GK[Phe(4-F)][S5]HKKKK[Phe(4-F)]GKA[S5]VVE[S5]AKK-NH2; staple 2-6, 16-20) | 4 | 2 | >64 | 86 (≈ 32.4 µM) | 4 | 2 | 
CC(C)[C@@H]1NC(=O)[C@@](C)(NC(=O)[C@H](C)NC(=O)[C@H](CCCCN)NC(=O)CNC(=O)[C@H](Cc2ccccc2)NC(=O)[C@H](CCCCN)NC(=O)[C@H](CCCCN)NC(=O)[C@H](CCCCN)NC(=O)[C@H](CCCCN)NC(=O)[C@H](CCCCN)NC(=O)[C@]2(C)CCCC=CCCC[C@](C)(NC(=O)CN)C(=O)NCC(=O)N[C@@H](CCN)C(=O)N[C@@H](Cc3ccccc3)C(=O)N2)CCCC=CCCC[C@@](C)(C(=O)N[C@@H](C)C(=O)N[C@@H](CCCCN)C(=O)N[C@@H](CCCCN)C(N)=O)NC(=O)[C@H](CCC(=O)O)NC(=O)CNC1=O [compound 37] (H-G[S5]G[Dab]F[S5]KKKKKFGKA[S5]VGE[S5]AKK-NH2; staple 2-6, 16-20) | 4 | 2 | >64 | 113 (≈ 44.6 µM) | 2 | 2 | 

Continued, in another order:

Minimum Inhibitory Concentration (MIC) K. pneumoniae [1] [µg/mL] | Minimum Inhibitory Concentration (MIC) A. baumannii [2] [µg/mL] | Minimum Inhibitory Concentration (MIC) S. aureus [3] [µg/mL] | IC50 at 90 min [4] [µg/mL] | Minimum Inhibitory Concentration (MIC) P. aeruginosa [5] [µg/mL] | Minimum Inhibitory Concentration (MIC) E. coli [7] [µg/mL] | Structure (SMILES) | IC50 at 48 hours [6] [µg/mL]
8 | 2 | >64 | 115 (≈ 45.3 µM) | 4 | 2 | CC(C)[C@@H]1NC(=O)[C@@](C)(NC(=O)[C@H](C)NC(=O)[C@H](CCN)NC(=O)CNC(=O)[C@H](Cc2ccccc2)NC(=O)[C@H](CCCCN)NC(=O)[C@H](CCCCN)NC(=O)[C@H](CCCCN)NC(=O)[C@H](CCCCN)NC(=O)[C@H](CCCCN)NC(=O)[C@]2(C)CCCC=CCCC[C@](C)(NC(=O)CN)C(=O)NCC(=O)N[C@@H](CCCCN)C(=O)N[C@@H](Cc3ccccc3)C(=O)N2)CCCC=CCCC[C@@](C)(C(=O)N[C@@H](C)C(=O)N[C@@H](CCCCN)C(=O)N[C@@H](CCCCN)C(N)=O)NC(=O)[C@H](CCC(=O)O)NC(=O)CNC1=O [compound 39] (H-G[S5]GKF[S5]KKKKKFG[Dab]A[S5]VGE[S5]AKK-NH2; staple 2-6, 16-20) | 140 (≈ 55.2 µM)
16 | 4 | >64 | 117 (≈ 45.5 µM) | 8 | 4 | CC(C)[C@@H]1NC(=O)[C@@](C)(NC(=O)[C@H](C)NC(=O)[C@H](CCCCN)NC(=O)CNC(=O)[C@H](Cc2c[nH]c3ccccc23)NC(=O)[C@H](CCCCN)NC(=O)[C@H](CCCCN)NC(=O)[C@H](CCCCN)NC(=O)[C@H](CO)NC(=O)[C@H](Cc2c[nH]cn2)NC(=O)[C@]2(C)CCCC=CCCC[C@](C)(NC(=O)CN)C(=O)NCC(=O)N[C@@H](CCCCN)C(=O)N[C@@H](Cc3ccccc3)C(=O)N2)CCCC=CCCC[C@@](C)(C(=O)N[C@@H](C)C(=O)N[C@@H](CCCCN)C(=O)N[C@@H](CCCCN)C(N)=O)NC(=O)[C@H](CCC(=O)O)NC(=O)CNC1=O [compound 68] (H-G[S5]GKF[S5]HSKKKWGKA[S5]VGE[S5]AKK-NH2; staple 2-6, 16-20) | 129 (≈ 50.2 µM)
8 | 2 | >64 | > 200 | 4 | 4 | CC(C)[C@@H]1NC(=O)[C@@](C)(NC(=O)[C@H](C)NC(=O)[C@H](CCCCN)NC(=O)CNC(=O)[C@H](Cc2ccccc2)NC(=O)[C@H](CCCCN)NC(=O)[C@H](CCCCN)NC(=O)[C@H](CCCCN)NC(=O)[C@H](CCCCN)NC(=O)[C@H](CCCCN)NC(=O)[C@]2(C)CCCC=CCCC[C@](C)(NC(=O)CN)C(=O)NCC(=O)N[C@@H](CCCCN)C(=O)N[C@@H](Cc3ccccc3)C(=O)N2)CCCC=CCCC[C@@](C)(C(=O)N[C@@H](C)C(=O)N[C@@H](CCCCN)C(=O)N[C@@H](CCCCN)C(=O)NCCOCCOCCOCCOCCOCCC(N)=O)NC(=O)[C@H](CCC(=O)O)NC(=O)CNC1=O [compound 75] (H-G[S5]GKF[S5]KKKKKFGKA[S5]VGE[S5]AKK[PEG5]-NH2; staple 2-6, 16-20) | 357 (≈ 125 µM)
4 | 2 | >64 | 117 (≈ 46.1 µM) | 2 | 2 | CC(C)[C@@H]1NC(=O)[C@@](C)(NC(=O)[C@H](C)NC(=O)[C@H](CCCCN)NC(=O)CNC(=O)[C@H](Cc2ccccc2)NC(=O)[C@H](CCCCN)NC(=O)[C@H](CCCCN)NC(=O)[C@H](CCCCN)NC(=O)[C@H](CCN)NC(=O)[C@H](CCCCN)NC(=O)[C@]2(C)CCCC=CCCC[C@](C)(NC(=O)CN)C(=O)NCC(=O)N[C@@H](CCCCN)C(=O)N[C@@H](Cc3ccccc3)C(=O)N2)CCCC=CCCC[C@@](C)(C(=O)N[C@@H](C)C(=O)N[C@@H](CCCCN)C(=O)N[C@@H](CCCCN)C(N)=O)NC(=O)[C@H](CCC(=O)O)NC(=O)CNC1=O [compound 38] (H-G[S5]GKF[S5]K[Dab]KKKFGKA[S5]VGE[S5]AKK-NH2; staple 2-6, 16-20) | 
